From ChEMBL document CHEMBL4742390, “Derivatives of quinolines as inhibitors of dyrk1a and/or dyrk1b kinases” (2019)
pIC50: −log10 of the molar value.

Columns and labels:
[1] = molecular target: Dual specificity tyrosine-phosphorylation-regulated kinase 1A (Homo sapiens, UniProt Q13627); assay: Inhibition of N-terminal GST tagged human DYRK1A expressed in Sf21 cells incubated for 30 mins by ADP-Glo assay
[2] = molecular target: Dual specificity tyrosine-phosphorylation-regulated kinase 1B (Homo sapiens, UniProt Q9Y463); assay: Inhibition of N-terminal GST tagged human DYRK1B expressed in Sf21 cells incubated for 60 mins by ADP-Glo assay
Dual specificity tyrosine-phosphorylation-regulated kinase 1B, sequence (Q9Y463 whole entry): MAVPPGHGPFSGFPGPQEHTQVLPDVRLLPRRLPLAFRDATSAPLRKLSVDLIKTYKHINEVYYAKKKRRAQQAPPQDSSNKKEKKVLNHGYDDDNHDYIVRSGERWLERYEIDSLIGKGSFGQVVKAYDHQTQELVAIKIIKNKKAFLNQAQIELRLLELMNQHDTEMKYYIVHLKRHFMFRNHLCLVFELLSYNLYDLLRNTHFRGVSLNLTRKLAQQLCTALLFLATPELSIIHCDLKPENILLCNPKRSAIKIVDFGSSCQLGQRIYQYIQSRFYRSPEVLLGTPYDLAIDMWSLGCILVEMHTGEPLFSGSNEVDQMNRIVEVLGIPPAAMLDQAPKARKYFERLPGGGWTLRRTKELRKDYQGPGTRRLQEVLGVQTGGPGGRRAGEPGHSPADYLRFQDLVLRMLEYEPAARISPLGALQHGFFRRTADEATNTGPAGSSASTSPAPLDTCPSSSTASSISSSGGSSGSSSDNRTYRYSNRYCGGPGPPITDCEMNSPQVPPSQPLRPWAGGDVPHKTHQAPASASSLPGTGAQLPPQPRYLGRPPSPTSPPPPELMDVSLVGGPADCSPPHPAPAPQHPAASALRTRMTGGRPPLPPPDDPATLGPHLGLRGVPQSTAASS

Row | SMILES | pIC50 [1] | pIC50 [2] | pIC50 ([2]; sf21) | pIC50 ([1]; sf21)
1 | CNC(=O)c1cnc2[nH]cc(-c3ccc4ncc(N)c(N5CCC[C@H](N)C5)c4c3)c2c1 | > 8.00 | > 8.00 |  | 
2 | NCCCNC(=O)c1cnc2[nH]cc(-c3cc(F)c4nccc(-c5cccnc5)c4c3)c2c1 | > 8.00 | > 8.00 |  | 
3 | NCCCNC(=O)c1cnc2[nH]cc(-c3cc(F)c4ncccc4c3)c2c1 | > 8.00 | > 8.00 |  | 
4 | NC(=O)c1cnc2[nH]cc(-c3cc(F)c4ncccc4c3)c2c1 | > 8.00 | > 8.00 |  | 
5 | C=CCN(C)C(=O)c1cnc2[nH]cc(-c3cc(F)c4ncccc4c3)c2c1 | > 8.00 | > 8.00 |  | 
6 | N[C@@H]1CCCN(c2ccnc3c(F)cc(-c4c[nH]c5ncc(CNCc6ccccc6)cc45)cc23)C1 | > 8.00 | > 8.00 |  | 
7 | Fc1cc(-c2c[nH]c3ncccc23)cc2cccnc12 | > 8.00 | > 8.00 |  | 
8 | N[C@H]1CCCN(c2ccnc3ccc(-c4c[nH]c5ncccc45)cc23)C1 | > 8.00 | > 8.00 |  | 
9 | CNC(=O)c1cnc2[nH]cc(-c3ccc4nccc(N5CCOCC5)c4c3)c2c1 | > 8.00 | > 8.00 |  | 
10 | C=CCCCc1ccnc2ccc(-c3c[nH]c4ncc(CN(C)CC=C)cc34)cc12 | > 8.00 |  | 8.00 | 
11 | N[C@H]1CC[C@H](Nc2c(NCC3CCOCC3)cnc3ccc(-c4c[nH]c5ncc(C(=O)NCc6cccnc6)cc45)cc23)CC1 | > 8.00 |  | 8.00 | 
12 | CNC(=O)c1cnc2[nH]cc(-c3ccc4ncc([N+](=O)[O-])c(N5CCC[C@H](N)C5)c4c3)c2c1 | > 8.00 |  | 8.00 | 
13 | N[C@H]1CCN(c2ccnc3ccc(-c4c[nH]c5ncccc45)cc23)C1 |  | > 8.00 |  | 
14 | C=CCN(C)C(=O)c1cnc2[nH]cc(-c3cc(F)c4nccc(-c5cccnc5)c4c3)c2c1 | > 8.00 |  | 8.00 | 
15 | CNC(=O)c1cnc2[nH]cc(-c3cc(F)c4nccc(CCc5ccccc5)c4c3)c2c1 | > 8.00 | > 8.00 |  | 
16 | CNC(=O)c1cnc2[nH]cc(-c3ccc4ncc(NCc5cccc(Cl)c5)c(N5CCOCC5)c4c3)c2c1 | > 8.00 |  | 8.00 | 
17 | CNC(=O)c1cnc2[nH]cc(-c3cc(F)c4ncccc4c3)c2c1 | > 8.00 | > 8.00 |  | 
18 | CNC(=O)c1cnc2[nH]cc(-c3cc(C)c4nccc(-c5cccnc5)c4c3)c2c1 |  | ≤ 7.00 |  | 
19 | C=CCN(C)Cc1cnc2[nH]cc(-c3cc(F)c4nccc(-c5cccnc5)c4c3)c2c1 | > 8.00 |  | 8.00 | 
20 | N[C@@H]1CCCN(c2ccnc3c(F)cc(-c4c[nH]c5ncc(C(=O)NCc6cccnc6)cc45)cc23)C1 | > 8.00 | > 8.00 |  | 
21 | Cc1cc(-c2c[nH]c3ncccc23)cc2c(-c3ccccc3)ccnc12 | ≤ 7.00 | ≤ 7.00 |  | 
22 | Fc1cc(-c2c[nH]c3ncccc23)cc2c(-c3cccnc3)ccnc12 | > 8.00 | > 8.00 |  | 

Row | SMILES | pIC50 [1] | pIC50 [2] | pIC50 ([2]; sf21) | pIC50 ([1]; sf21)
23 | O=C(NCc1cccnc1)c1cnc2[nH]cc(-c3ccc4ncc(NCC5CCOCC5)cc4c3)c2c1 | > 8.00 | > 8.00 |  | 
24 | COc1cc(-c2c[nH]c3ncccc23)cc2cccnc12 |  | ≤ 7.00 |  | 
25 | CN1CCC(N(C)c2c([N+](=O)[O-])cnc3ccc(-c4c[nH]c5ncccc45)cc23)CC1 |  |  | 8.00 | 8.00
26 | CNC(=O)c1cnc2[nH]cc(-c3cc(F)c4nccc(-c5cnccc5C)c4c3)c2c1 | > 8.00 | > 8.00 |  | 
27 | CNC(=O)c1cnc2[nH]cc(-c3ccc4ncc(NCC5CCOCC5)c(N5CCOCC5)c4c3)c2c1 | > 8.00 |  | 8.00 | 
28 | c1ccc(-c2ccnc3ccc(-c4c[nH]c5ncccc45)cc23)cc1 | > 8.00 | > 8.00 |  | 
29 | Cc1cc(-c2c[nH]c3ncccc23)cc2c(-c3cccnc3)ccnc12 |  |  | 8.00 | 
30 | C=CCN(C)C(=O)c1cnc2[nH]cc(-c3cc(OC)c4ncccc4c3)c2c1 | ≤ 7.00 | ≤ 7.00 |  | 
31 | NCCCNC(=O)c1cnc2[nH]cc(-c3cc(Cl)c4ncccc4c3)c2c1 | > 8.00 | > 8.00 |  | 
32 | COc1cc(-c2c[nH]c3ncc(C(N)=O)cc23)cc2c(-c3cccnc3)ccnc12 |  | ≤ 7.00 |  | 8.00
33 | CNC(=O)c1cnc2[nH]cc(-c3cc(OC)c4ncccc4c3)c2c1 |  | ≤ 7.00 |  | 
34 | Cc1cc(-c2c[nH]c3ncccc23)cc2cccnc12 |  | ≤ 7.00 |  | 
35 | O=C(NCc1ccccc1)c1cnc2[nH]cc(-c3cc(F)c4ncccc4c3)c2c1 | > 8.00 | > 8.00 |  | 
36 | c1cnc2[nH]cc(-c3ccc4ncc(NCc5ccoc5)cc4c3)c2c1 | > 8.00 | > 8.00 |  | 
37 | CNC(=O)c1cnc2[nH]cc(-c3ccc4nccc(-c5cccnc5)c4c3)c2c1 | > 8.00 | > 8.00 |  | 
38 | c1cncc(-c2ccnc3ccc(-c4c[nH]c5ncccc45)cc23)c1 | > 8.00 | > 8.00 |  | 
39 | Nc1cnc2ccc(-c3c[nH]c4ncc(C(=O)NCc5cccnc5)cc34)cc2c1 | > 8.00 | > 8.00 |  | 
40 | C=CCN(C)C(=O)c1cnc2[nH]cc(-c3cc(Cl)c4ncccc4c3)c2c1 | > 8.00 |  | 8.00 | 
41 | Clc1cc(-c2c[nH]c3ncccc23)cc2cccnc12 | > 8.00 | > 8.00 |  | 
42 | c1cnc2ccc(-c3c[nH]c4ncccc34)cc2c1 | > 8.00 | > 8.00 |  | 
43 | CNC(=O)c1cnc2[nH]cc(-c3ccc4ncc(NCc5cccc(Cl)c5)c(N5CCC[C@H](N)C5)c4c3)c2c1 | > 8.00 |  | 8.00 | 
44 | O=C(NCc1cccnc1)c1cnc2[nH]cc(-c3cc(F)c4nccc(-c5cccnc5)c4c3)c2c1 | > 8.00 | > 8.00 |  | 

Row | SMILES | pIC50 [1] | pIC50 [2] | pIC50 ([2]; sf21) | pIC50 ([1]; sf21)
45 | CNC(=O)c1cnc2[nH]cc(-c3ccc4ncccc4c3)c2c1 | > 8.00 | > 8.00 |  | 
46 | N[C@@H]1CCCN(c2ccnc3c(F)cc(-c4c[nH]c5ncc(C(=O)NCc6cncnc6)cc45)cc23)C1 | > 8.00 | > 8.00 |  | 
47 | CN1CCC(Nc2ccnc3ccc(-c4c[nH]c5ncccc45)cc23)CC1 |  |  | 8.00 | 
48 | CC(=O)Nc1cnc2[nH]cc(-c3cc(F)c4nccc(-c5cccnc5)c4c3)c2c1 | > 8.00 | > 8.00 |  | 
49 | CC(=O)Nc1cnc2ccc(-c3c[nH]c4ncc(C(=O)NCc5cccnc5)cc34)cc2c1 | > 8.00 | > 8.00 |  | 
50 | CNC(=O)c1cnc2[nH]cc(-c3ccc4ncc(NC(C)=O)c(N5CCOCC5)c4c3)c2c1 | > 8.00 | > 8.00 |  | 
51 | Clc1ccnc2ccc(-c3c[nH]c4ncccc34)cc12 |  |  | 8.00 | 
52 | Fc1cc(-c2c[nH]c3ncc(CNCc4ccccc4)cc23)cc2c(-c3cccnc3)ccnc12 | > 8.00 | > 8.00 |  | 
53 | CNC(=O)c1cnc2[nH]cc(-c3ccc4nccc(Cl)c4c3)c2c1 | > 8.00 | > 8.00 |  | 
54 | CNC(=O)c1cnc2[nH]cc(-c3cc(F)c4nccc(N5CCC[C@H](N)C5)c4c3)c2c1 | > 8.00 | > 8.00 |  | 
55 | CN1CCC(Nc2c(C#N)cnc3ccc(-c4c[nH]c5ncccc45)cc23)CC1 |  |  | 8.00 | 
56 | O=C(NCc1ccccc1)c1cnc2[nH]cc(-c3cc(Cl)c4ncccc4c3)c2c1 | > 8.00 |  | 8.00 | 
57 | CNC(=O)c1cnc2[nH]cc(-c3cc(F)c4nccc(N5CCC[C@@H](N)C5)c4c3)c2c1 | > 8.00 | > 8.00 |  | 
58 | O=C(NCc1ccccc1)c1cnc2[nH]cc(-c3cc(F)c4nccc(-c5cccnc5)c4c3)c2c1 | > 8.00 |  | 8.00 | 
59 | c1cnc2[nH]cc(-c3ccc4nccc(-c5ccncc5)c4c3)c2c1 | > 8.00 | > 8.00 |  | 
60 | CNC(=O)c1cnc2[nH]cc(-c3cc(F)c4nccc(-c5cccnc5)c4c3)c2c1 | > 8.00 | > 8.00 |  | 
61 | C=CCN(C)C(=O)c1cnc2[nH]cc(-c3ccc4nccc(Cl)c4c3)c2c1 | > 8.00 |  | 8.00 | 
62 | FC(F)(F)Oc1cc(-c2c[nH]c3ncccc23)cc2cccnc12 |  | ≤ 7.00 |  | 8.00
63 | C=CC1CN2CCC1CC2[C@H](O)c1ccnc2ccc(-c3c[nH]c4ncccc34)cc12 (some centres not stated) | > 8.00 | > 8.00 |  | 
64 | CC(=O)N1CCC(Nc2c(N)cnc3ccc(-c4c[nH]c5ncccc45)cc23)CC1 | > 8.00 | > 8.00 |  | 
65 | N[C@H]1CC[C@H](Nc2c([N+](=O)[O-])cnc3ccc(-c4c[nH]c5ncc(C(=O)NCc6cccnc6)cc45)cc23)CC1 |  |  | 8.00 | 8.00
66 | N[C@H]1CC[C@H](Nc2ccnc3ccc(-c4c[nH]c5ncccc45)cc23)CC1 |  | ≤ 7.00 |  | 
